According to patent publication US8415469B2, “Compounds and methods for kinase modulation, and indications therefor” (Plexxikon Inc., priority 2005, dated 2013):

Key:
Assay type in all cases: biochemical
c-Raf-1 = molecular target: T1, c-Raf-1 (Homo sapiens, UniProt P04049); test: AlphaScreen kinase assay, c-Raf-1; details: read-out: IC50, activity toward kinase c-Raf-1
T1 construct: purchased Upstate Biotechnology

B-Raf V600E = molecular target: T2, B-Raf V600E (Homo sapiens, UniProt P15056, V600E); test: AlphaScreen kinase assay, B-Raf V600E; details: read-out: IC50, activity toward kinase B-Raf V600E
T2 construct: P4254. pFastBacBD-CDC37 BRAF D437-K722-X, V600E; His6 with pFastBac HT leader (TEV site) (N); made in house; host or cells: Sf9 (baculovirus; chaperone CDC37 co-expressed)

Jnk1 = molecular target: T3, Jnk1 (Homo sapiens, UniProt P45983); test: AlphaScreen kinase assay, Jnk1; details: read-out: IC50, activity toward kinase Jnk1
T3 construct: purchased Upstate Biotechnology

B-Raf = molecular target: T4, B-Raf (Homo sapiens, UniProt P15056); test: AlphaScreen kinase assay, B-Raf; details: read-out: IC50, activity toward kinase B-Raf
T4 construct: purchased Upstate Biotechnology

FGFR1 = molecular target: T5, FGFR1 (Homo sapiens, UniProt P11362, C488A/C584S); test: AlphaScreen kinase assay, FGFR1; details: read-out: IC50, activity toward kinase FGFR
T5 construct: P1351.pET N6 BI-PTP FGFR A458-E765-X C488A, C584S; made in house; host or cells: E. coli (PTP1B co-expressed)

Kit = molecular target: T6, Kit (Homo sapiens, UniProt P10721); test: AlphaScreen kinase assay, Kit; details: read-out: IC50, activity toward kinase Kit
T6 construct: P1332.N6 BI PTP KIT M552-K948-X COD; His6 (N); made in house; host or cells: E. coli (PTP1B co-expressed)

Flt1 = molecular target: T7, Flt1 (Homo sapiens, UniProt P17948); test: AlphaScreen kinase assay, Flt1; details: read-out: IC50, activity toward kinase Flt1
T7 construct: P1826.pETN6 BI-PTP FLT1 M799-D1165-X WT; His6 (N); made in house; host or cells: E. coli (PTP1B co-expressed)
T7 sequence (P17948 with tags, fused parts or gaps): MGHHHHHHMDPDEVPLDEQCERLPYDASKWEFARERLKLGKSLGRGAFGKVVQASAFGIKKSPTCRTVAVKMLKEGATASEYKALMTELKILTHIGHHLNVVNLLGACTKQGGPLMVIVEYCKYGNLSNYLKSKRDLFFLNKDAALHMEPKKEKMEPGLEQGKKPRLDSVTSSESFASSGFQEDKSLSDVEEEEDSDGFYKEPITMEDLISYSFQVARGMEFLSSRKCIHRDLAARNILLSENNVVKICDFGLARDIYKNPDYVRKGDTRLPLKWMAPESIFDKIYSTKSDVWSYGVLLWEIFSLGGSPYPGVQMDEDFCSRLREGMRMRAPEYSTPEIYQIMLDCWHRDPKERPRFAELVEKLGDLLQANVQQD

Fms = molecular target: T8, Fms (Homo sapiens, UniProt P07333); test: AlphaScreen kinase assay, Fms; details: read-out: IC50, activity toward kinase Fms
T8 construct: purchased Upstate Biotechnology

Measured: IC50

T1 sequence (P04049 whole entry): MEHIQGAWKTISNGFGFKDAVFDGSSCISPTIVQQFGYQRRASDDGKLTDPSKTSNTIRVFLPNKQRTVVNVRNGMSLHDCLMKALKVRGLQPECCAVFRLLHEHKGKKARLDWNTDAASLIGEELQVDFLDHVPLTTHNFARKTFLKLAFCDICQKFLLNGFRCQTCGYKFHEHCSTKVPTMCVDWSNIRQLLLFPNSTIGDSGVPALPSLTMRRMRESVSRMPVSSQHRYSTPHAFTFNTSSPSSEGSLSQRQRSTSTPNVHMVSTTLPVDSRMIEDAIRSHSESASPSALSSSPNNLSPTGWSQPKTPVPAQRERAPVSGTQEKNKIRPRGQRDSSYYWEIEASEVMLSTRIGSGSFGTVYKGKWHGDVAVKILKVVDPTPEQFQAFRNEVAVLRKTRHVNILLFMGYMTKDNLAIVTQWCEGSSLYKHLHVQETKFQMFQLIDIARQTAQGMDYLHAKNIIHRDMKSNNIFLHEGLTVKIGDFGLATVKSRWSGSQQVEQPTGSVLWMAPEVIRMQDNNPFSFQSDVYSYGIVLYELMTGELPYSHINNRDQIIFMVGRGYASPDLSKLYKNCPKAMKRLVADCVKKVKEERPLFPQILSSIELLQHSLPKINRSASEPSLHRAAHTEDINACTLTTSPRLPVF
T2 sequence (P15056 with tags, fused parts or gaps V600E): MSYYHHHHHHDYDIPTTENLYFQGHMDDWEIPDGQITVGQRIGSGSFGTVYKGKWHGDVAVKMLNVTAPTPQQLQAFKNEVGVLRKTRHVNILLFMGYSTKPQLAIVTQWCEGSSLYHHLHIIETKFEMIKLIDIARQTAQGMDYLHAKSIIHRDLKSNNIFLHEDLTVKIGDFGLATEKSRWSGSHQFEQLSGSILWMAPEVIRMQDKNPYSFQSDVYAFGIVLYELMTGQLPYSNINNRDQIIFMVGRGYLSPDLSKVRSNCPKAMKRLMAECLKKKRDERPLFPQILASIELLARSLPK
T3 sequence (P45983 whole entry): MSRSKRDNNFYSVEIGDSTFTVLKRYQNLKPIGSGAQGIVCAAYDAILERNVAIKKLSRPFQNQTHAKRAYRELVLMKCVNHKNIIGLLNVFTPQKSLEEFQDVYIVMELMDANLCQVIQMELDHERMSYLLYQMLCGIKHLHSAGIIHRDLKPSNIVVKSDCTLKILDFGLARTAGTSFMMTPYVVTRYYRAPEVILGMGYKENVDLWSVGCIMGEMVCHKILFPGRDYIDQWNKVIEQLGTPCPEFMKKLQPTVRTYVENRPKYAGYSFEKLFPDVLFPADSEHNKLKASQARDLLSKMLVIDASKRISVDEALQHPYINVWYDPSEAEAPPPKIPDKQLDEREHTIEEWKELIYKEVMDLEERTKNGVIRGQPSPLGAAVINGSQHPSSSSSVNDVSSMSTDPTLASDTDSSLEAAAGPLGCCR
T8 sequence (P07333 20-972): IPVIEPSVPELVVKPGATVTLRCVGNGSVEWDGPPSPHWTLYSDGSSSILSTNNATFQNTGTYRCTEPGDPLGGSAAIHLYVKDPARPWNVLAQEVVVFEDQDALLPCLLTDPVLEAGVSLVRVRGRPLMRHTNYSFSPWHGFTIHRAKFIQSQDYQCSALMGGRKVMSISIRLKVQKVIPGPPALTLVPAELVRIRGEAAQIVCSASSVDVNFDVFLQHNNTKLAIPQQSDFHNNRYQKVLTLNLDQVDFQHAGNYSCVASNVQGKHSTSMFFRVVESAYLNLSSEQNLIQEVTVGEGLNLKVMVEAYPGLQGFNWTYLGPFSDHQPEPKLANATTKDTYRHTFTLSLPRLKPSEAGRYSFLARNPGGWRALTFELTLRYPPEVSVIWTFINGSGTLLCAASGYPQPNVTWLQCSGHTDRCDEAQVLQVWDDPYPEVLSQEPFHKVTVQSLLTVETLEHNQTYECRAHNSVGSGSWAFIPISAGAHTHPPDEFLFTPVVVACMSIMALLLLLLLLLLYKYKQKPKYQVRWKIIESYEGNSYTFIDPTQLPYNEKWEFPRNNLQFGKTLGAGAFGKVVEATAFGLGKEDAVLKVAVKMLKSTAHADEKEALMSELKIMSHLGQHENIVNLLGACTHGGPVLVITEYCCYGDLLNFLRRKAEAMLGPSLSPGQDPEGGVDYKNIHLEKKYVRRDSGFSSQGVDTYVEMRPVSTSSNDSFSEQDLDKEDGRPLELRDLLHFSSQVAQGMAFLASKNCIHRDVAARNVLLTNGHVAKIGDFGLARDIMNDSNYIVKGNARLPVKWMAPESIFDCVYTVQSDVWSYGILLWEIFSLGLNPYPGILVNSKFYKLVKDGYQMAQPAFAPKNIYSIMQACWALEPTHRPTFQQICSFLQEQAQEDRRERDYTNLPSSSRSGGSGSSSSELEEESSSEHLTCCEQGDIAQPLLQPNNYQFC
T6 sequence (P10721 with tags, fused parts or gaps): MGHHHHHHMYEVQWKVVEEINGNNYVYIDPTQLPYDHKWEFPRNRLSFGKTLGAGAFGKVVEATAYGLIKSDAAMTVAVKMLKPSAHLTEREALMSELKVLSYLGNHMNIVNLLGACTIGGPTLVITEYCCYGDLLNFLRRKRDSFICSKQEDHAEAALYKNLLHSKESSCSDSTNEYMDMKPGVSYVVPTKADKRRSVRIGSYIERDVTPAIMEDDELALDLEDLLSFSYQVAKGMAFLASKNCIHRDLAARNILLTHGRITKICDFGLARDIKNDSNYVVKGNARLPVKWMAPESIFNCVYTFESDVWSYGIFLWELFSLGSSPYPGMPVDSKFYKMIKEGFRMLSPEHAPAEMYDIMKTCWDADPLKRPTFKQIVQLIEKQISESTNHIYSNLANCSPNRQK
T4 sequence (P15056 whole entry): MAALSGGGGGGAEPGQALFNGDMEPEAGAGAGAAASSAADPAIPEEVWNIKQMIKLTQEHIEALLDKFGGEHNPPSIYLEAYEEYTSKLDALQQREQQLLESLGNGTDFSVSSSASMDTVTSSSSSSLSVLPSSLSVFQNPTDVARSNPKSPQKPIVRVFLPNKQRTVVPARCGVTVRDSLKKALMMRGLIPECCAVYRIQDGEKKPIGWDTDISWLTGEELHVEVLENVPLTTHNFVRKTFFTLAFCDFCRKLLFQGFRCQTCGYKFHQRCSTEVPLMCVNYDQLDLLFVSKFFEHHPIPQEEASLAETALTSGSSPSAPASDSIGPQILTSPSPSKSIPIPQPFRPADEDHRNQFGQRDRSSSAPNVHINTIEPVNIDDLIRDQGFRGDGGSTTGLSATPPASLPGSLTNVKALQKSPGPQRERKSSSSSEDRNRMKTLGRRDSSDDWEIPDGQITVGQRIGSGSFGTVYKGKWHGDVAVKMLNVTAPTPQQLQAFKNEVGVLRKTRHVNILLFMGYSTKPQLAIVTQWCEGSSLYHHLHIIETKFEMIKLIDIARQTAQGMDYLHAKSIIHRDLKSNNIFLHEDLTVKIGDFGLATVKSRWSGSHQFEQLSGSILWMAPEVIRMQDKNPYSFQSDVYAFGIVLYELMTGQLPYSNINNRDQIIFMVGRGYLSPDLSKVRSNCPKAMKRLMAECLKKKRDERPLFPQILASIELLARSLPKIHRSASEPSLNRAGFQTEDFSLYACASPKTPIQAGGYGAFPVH
T5 sequence (P11362 458-765 C488A/C584S): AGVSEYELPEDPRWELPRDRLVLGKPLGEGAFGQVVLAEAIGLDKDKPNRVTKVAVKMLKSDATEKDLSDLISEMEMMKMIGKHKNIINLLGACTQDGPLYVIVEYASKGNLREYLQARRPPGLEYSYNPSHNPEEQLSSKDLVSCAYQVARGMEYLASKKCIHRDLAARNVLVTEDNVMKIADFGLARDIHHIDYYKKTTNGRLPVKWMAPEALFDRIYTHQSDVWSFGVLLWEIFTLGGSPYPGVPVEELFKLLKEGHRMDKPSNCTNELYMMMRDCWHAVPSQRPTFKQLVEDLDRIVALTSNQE

CCCS(=O)(=O)Nc1ccc(F)c(C(=O)c2c[nH]c3ncc(N4CCC(C)CC4)cc23)c1F [Compound P-0860, propane-1-sulfonic acid {2,4-difluoro-3-[5-(4-methyl-piperidin-1-yl)-1H-pyrrolo[2,3-b]pyridine-3-carbonyl]-phenyl}-amide]
not listed: Flt1 | Fms
≤ 10 µM: all other assays above

O=C(c1c[nH]c2ncc(-c3cccnc3)cc12)c1cccc2c1ccn2COCc1ccccc1 [Compound P-1523, (1-Benzyloxymethyl-1H-indol-4-yl)-(5-pyridin-3-yl-1H-pyrrolo[2,3-b]pyridin-3-yl)-methanone]
≤ 10 µM: Flt1 | Jnk1

CCCS(=O)(=O)Nc1ccc(F)c(C(=O)c2c[nH]c3ncc(-c4cccc(C(N)=O)c4)cc23)c1F [Compound P-1549, 3-{3-[2,6-Difluoro-3-(propane-1-sulfonylamino)-benzoyl]-1H-pyrrolo[2,3-b]pyridin-5-yl}-benzamide]
not listed: c-Raf-1
≤ 10 µM: all other assays above

O=C(NCc1ccccc1)Nc1cccc(C(=O)c2c[nH]c3ncc(Br)cc23)c1 [Compound P-1553, 1-Benzyl-3-[3-(5-bromo-1H-pyrrolo[2,3-b]pyridine-3-carbonyl)-phenyl]-urea]
not listed: c-Raf-1 | FGFR1
≤ 10 µM: all other assays above

O=C(c1ccc(Cl)cc1Cl)c1c[nH]c2ncc(-c3cccnc3)cc12 [Compound P-1556]
not listed: c-Raf-1 | Kit
≤ 10 µM: all other assays above

CCCCNC(=O)Nc1cccc(C(=O)c2c[nH]c3ncc(Br)cc23)c1 [Compound P-1596, 1-[3-(5-bromo-1H-pyrrolo[2,3-b]pyridine-3-carbonyl)-phenyl]-3-butyl-urea]
≤ 10 µM: Flt1 | B-Raf V600E | Jnk1 | B-Raf | Fms

COc1ccc(NC(=O)Nc2cccc(C(=O)c3c[nH]c4ncccc34)c2)cc1OC [Compound P-1708, 1-(3,4-Dimethoxy-phenyl)-3-[3-(1H-pyrrolo[2,3-b]pyridine-3-carbonyl)-phenyl]-urea]
≤ 10 µM: B-Raf V600E | Jnk1 | B-Raf | Kit | Fms

CC(C)c1ccc(S(=O)(=O)Nc2ccc(F)c(C(=O)c3c[nH]c4ncc(Cl)cc34)c2F)cc1 [Compound P-1839, N-[3-(5-chloro-1H-pyrrolo[2,3-b]pyridine-3-carbonyl)-2,4-difluoro-phenyl]-4-isopropyl-benzenesulfonamide]
not listed: FGFR1 | Flt1
≤ 10 µM: all other assays above

CCCS(=O)(=O)Nc1ccc(F)c(C(=O)c2c[nH]c3ncc(-c4cccc(N5CCOCC5)c4)cc23)c1F [Compound P-1873, Propane-1-sulfonic acid {2,4-difluoro-3-[5-(3-morpholin-4-yl-phenyl)-1H-pyrrolo[2,3-b]pyridine-3-carbonyl]-phenyl}-amide]
not listed: FGFR1 | Flt1
≤ 10 µM: all other assays above
